Molecules are shown by their SMILES. Toxic doses and inconclusive results are not listed.

The values that follow come from PubChem BioAssay AID248 (DTP/NCI, 2004).

The test concerns L1210 leukemia ip in BDF1 mice, survival T/C. Description: NCI In Vivo Anticancer Drug Screen. Data for tumor model L1210 Leukemia (intraperitoneal) in B6D2F1 (BDF1) mice. The conditions noted are these: endpoint: mean survival time, higher = longer survival. The gist of the method: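 Transplantable tumor model; survival measured in treated vs vehicle control mice. Value = treated/control.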

Where [1] appears, read: dose: 100.0 mg/kg/injection, schedule: Q01DX001 (ip), vehicle: saline.
[2] abbreviates: dose: 100.0 mg/kg/injection, schedule: Q04DX003 (ip), vehicle: saline.
Setting [3] is: dose: 200.0 mg/kg/injection, schedule: Q01DX001 (ip), vehicle: saline.
Where [4] appears, read: dose: 200.0 mg/kg/injection, schedule: Q04DX003 (ip), vehicle: saline.
The mark [5] stands for this setting: dose: 400.0 mg/kg/injection, schedule: Q01DX001 (ip), vehicle: saline.
The mark [6] stands for this setting: dose: 400.0 mg/kg/injection, schedule: Q04DX003 (ip), vehicle: saline.
The mark [7] stands for this setting: dose: 100.0 mg/kg/injection, schedule: Q04DX003 (ip), vehicle: saline with Tween-80.
Setting [8] is: dose: 200.0 mg/kg/injection, schedule: Q04DX003 (ip), vehicle: saline with Tween-80.
Setting [9] is: dose: 400.0 mg/kg/injection, schedule: Q04DX003 (ip), vehicle: saline with Tween-80.
[10] abbreviates: dose: 100.0 mg/kg/injection, schedule: Q01DX009 (ip), vehicle: saline.
[11] abbreviates: dose: 200.0 mg/kg/injection, schedule: Q01DX009 (ip), vehicle: saline.

In the case of `Nc1ccc(OCCCc2c(-c3ccccc3)nc(N)[nH]c2=O)cc1`, the T/C reads like this: (dose: 50.0 mg/kg/injection, schedule: Q01DX001 (ip), vehicle: saline) 93 % of control; under setting [1], 96 % of control; under setting [2], 100 % of control; under setting [3], 102 % of control; under setting [4], 96 % of control; under setting [5], 102 % of control. In addition, under setting [6], the T/C is 90 % of control.

On to `c1cc2c(cc1C1SCSCS1)OCO2`, for which the T/C (dose: 100.0 mg/kg/injection, schedule: Q01DX009 (ip), vehicle: Klucel (hydroxypropylcellulose) (HPC)) is 98 % of control; the T/C (dose: 100.0 mg/kg/injection, schedule: Q04DX003 (ip), vehicle: Klucel (hydroxypropylcellulose) (HPC)) is 96 % of control; the T/C (dose: 200.0 mg/kg/injection, schedule: Q01DX009 (ip), vehicle: Klucel (hydroxypropylcellulose) (HPC)) is 92 % of control; the T/C (dose: 200.0 mg/kg/injection, schedule: Q04DX003 (ip), vehicle: Klucel (hydroxypropylcellulose) (HPC)) is 98 % of control; the T/C (dose: 400.0 mg/kg/injection, schedule: Q01DX009 (ip), vehicle: Klucel (hydroxypropylcellulose) (HPC)) was 90 % of control; the T/C (dose: 400.0 mg/kg/injection, schedule: Q04DX003 (ip), vehicle: Klucel (hydroxypropylcellulose) (HPC)) is 98 % of control.

On to `Cc1ccc(S(=O)(=O)OCC2OCOC2C2OCOC2CI)cc1` (stereo not given), for which the T/C is 101 % of control (dose: 100.0 mg/kg/injection, schedule: Q01DX001 (ip), vehicle: saline with Tween-80); 101 % of control (dose: 200.0 mg/kg/injection, schedule: Q01DX001 (ip), vehicle: saline with Tween-80); 93 % of control (dose: 400.0 mg/kg/injection, schedule: Q01DX001 (ip), vehicle: saline with Tween-80).

Consider `CCCCCCCCCCCCCCCCSS(=O)(=O)c1ccc(C)cc1`, for which the T/C (dose: 75.0 mg/kg/injection, schedule: Q01DX001 (ip), vehicle: saline) was 98 % of control; the T/C (dose: 150.0 mg/kg/injection, schedule: Q01DX001 (ip), vehicle: saline) is 91 % of control; the T/C (dose: 300.0 mg/kg/injection, schedule: Q01DX001 (ip), vehicle: saline) was 90 % of control.

For the molecule `CCOc1cc(/C=N/N2CCN(/N=C/c3ccc(O)c(OCC)c3)CC2)ccc1O`, the T/C was 117 % of control under setting [1], 94 % of control under setting [3] and 88 % of control under setting [5].

Regarding `C[P+]1(C)CC=C2CCCCC21` (stereo not given), the T/C (dose: 12.5 mg/kg/injection, schedule: Q04DX002 (ip), vehicle: saline with Tween-80) was 100 % of control; the T/C (dose: 25.0 mg/kg/injection, schedule: Q04DX002 (ip), vehicle: saline with Tween-80) is 98 % of control; the T/C (dose: 50.0 mg/kg/injection, schedule: Q04DX002 (ip), vehicle: saline with Tween-80) is 98 % of control.

Consider `c1ccc(C(c2ccccc2)n2ccnc2)cc1`, for which the T/C is 94 % of control (dose: 37.5 mg/kg/injection, schedule: Q04DX003 (ip), vehicle: saline); 102 % of control (dose: 75.0 mg/kg/injection, schedule: Q04DX003 (ip), vehicle: saline); 105 % of control (dose: 150.0 mg/kg/injection, schedule: Q04DX003 (ip), vehicle: saline).

With `CCC[CH2][Hg][O]C(C)=O`, the T/C by setting is: (dose: 3.13 mg/kg/injection, schedule: Q01DX009 (ip), vehicle: saline sonified) 89 % of control; (dose: 6.25 mg/kg/injection, schedule: Q01DX009 (ip), vehicle: saline sonified) 89 % of control; (dose: 6.25 mg/kg/injection, schedule: Q04DX003 (ip), vehicle: Klucel (hydroxypropylcellulose) (HPC)) 100 % of control; (dose: 12.5 mg/kg/injection, schedule: Q01DX009 (ip), vehicle: saline sonified) 87 % of control; (dose: 12.5 mg/kg/injection, schedule: Q04DX003 (ip), vehicle: Klucel (hydroxypropylcellulose) (HPC)) 92 % of control.

In the case of `CCC1(Sc2ncnc3c2ncn3C2OC(CO)C(O)C2O)C(=O)NC(=O)NC1=O` (stereo not given), the T/C is 114 % of control under setting [1], 111 % of control under setting [3] and 120 % of control under setting [5].

For the molecule `CC1=NN(c2cccc(S(=O)(=O)O)c2)C(=O)C1`, the T/C was 105 % of control under setting [7], 101 % of control under setting [8] and 89 % of control under setting [9].

Take `O=C(Nc1ccccc1)c1ccccc1C(O)(c1ccccc1)c1ccccc1`: the T/C was 97 % of control under setting [1], 86 % of control under setting [3] and 102 % of control under setting [5].

`C=C(C)C(=O)OCC1COc2c(cc(O)c(C)c2C)C1` (stereo not given): the T/C is, setting by setting: under setting [7], 107 % of control; under setting [8], 98 % of control; under setting [9], 98 % of control.

Take `COc1ccc(O)c2c1C(=O)c1ccccc1C2=O`: the T/C is 93 % of control (dose: 25.0 mg/kg/injection, schedule: Q01DX009 (ip), vehicle: other); 95 % of control (dose: 50.0 mg/kg/injection, schedule: Q01DX009 (ip), vehicle: other); 104 % of control (dose: 100.0 mg/kg/injection, schedule: Q01DX009 (ip), vehicle: other); 102 % of control (dose: 200.0 mg/kg/injection, schedule: Q01DX009 (ip), vehicle: other); 104 % of control (dose: 400.0 mg/kg/injection, schedule: Q01DX009 (ip), vehicle: other).

`CCOC(=O)C(C)(OCC)OCC`: the T/C is, setting by setting: under setting [10], 103 % of control; (dose: 100.0 mg/kg/injection, schedule: Q01DX009 (ip), vehicle: water) 100 % of control; under setting [2], 109 % of control; (dose: 100.0 mg/kg/injection, schedule: Q04DX003 (ip), vehicle: water) 97 % of control; under setting [11], 96 % of control; (dose: 200.0 mg/kg/injection, schedule: Q01DX009 (ip), vehicle: water) 100 % of control. Also, the T/C is 96 % of control under setting [4]; 101 % of control (dose: 200.0 mg/kg/injection, schedule: Q04DX003 (ip), vehicle: water); 88 % of control (dose: 400.0 mg/kg/injection, schedule: Q01DX009 (ip), vehicle: saline); 91 % of control (dose: 400.0 mg/kg/injection, schedule: Q01DX009 (ip), vehicle: water); 102 % of control under setting [6]; 97 % of control (dose: 400.0 mg/kg/injection, schedule: Q04DX003 (ip), vehicle: water).

Consider `CCC(C)P(=O)(N1CC1)N1CC1` (stereo not given), for which the T/C runs as follows: (dose: 2.0 mg/kg/injection, schedule: Q01DX015 (ip), vehicle: carboxymethylcellulose (CMC)) 100 % of control; (dose: 4.0 mg/kg/injection, schedule: Q01DX015 (ip), vehicle: carboxymethylcellulose (CMC)) 103 % of control; (dose: 8.0 mg/kg/injection, schedule: Q01DX015 (ip), vehicle: carboxymethylcellulose (CMC)) 105 % of control; (dose: 16.0 mg/kg/injection, schedule: Q01DX015 (ip), vehicle: carboxymethylcellulose (CMC)) 121 % of control; (dose: 32.0 mg/kg/injection, schedule: Q01DX015 (ip), vehicle: carboxymethylcellulose (CMC)) 183 % of control.

For the molecule `CC(C)(O)C(O)c1ccccc1` (stereo not given), the T/C under setting [1] is 103 % of control; the T/C under setting [10] is 98 % of control; the T/C under setting [2] was 97 % of control; the T/C under setting [3] is 101 % of control; the T/C under setting [11] is 93 % of control; the T/C under setting [4] was 97 % of control. Further, the T/C by setting is: under setting [5], 95 % of control; under setting [6], 100 % of control.

Turning to `CCCCN=Cc1ccc(Cl)cc1`, the T/C is 90 % of control (dose: 100.0 mg/kg/injection, schedule: Q04DX002 (ip), vehicle: saline with Tween-80); 87 % of control (dose: 200.0 mg/kg/injection, schedule: Q04DX002 (ip), vehicle: saline with Tween-80); 100 % of control (dose: 400.0 mg/kg/injection, schedule: Q04DX002 (ip), vehicle: saline with Tween-80).

In the case of `CN1C(=O)C2(C)CCC1c1ccccc12` (stereo not given), the T/C is 103 % of control (dose: 100.0 mg/kg/injection, schedule: Q01DX001 (ip), vehicle: other) and 103 % of control (dose: 200.0 mg/kg/injection, schedule: Q01DX001 (ip), vehicle: other).
